In US11578074B2, “Nitrogenous heterocyclic compound, preparation method, intermediate, composition, and application” (SHANGHAI PHARMACEUTICALS HOLDING CO., LTD., priority 2017, dated 2023) one finds inhibition and IC50 data, which are given here for 7 compounds.

Broadly, the inhibition is the relative decrease from the control value, in per cent. As usually defined, the IC50 is the point on the concentration scale where inhibition reaches its midpoint.

Read-outs that look alike come from different tables or passages of the source.

In one series the target is T1, CYP3A4 (Homo sapiens, UniProt P08684).
T1 construct: A system of 100 μL human liver microsomes; from tissue; host or cells: human liver microsomes
T1 sequence (P08684 whole entry): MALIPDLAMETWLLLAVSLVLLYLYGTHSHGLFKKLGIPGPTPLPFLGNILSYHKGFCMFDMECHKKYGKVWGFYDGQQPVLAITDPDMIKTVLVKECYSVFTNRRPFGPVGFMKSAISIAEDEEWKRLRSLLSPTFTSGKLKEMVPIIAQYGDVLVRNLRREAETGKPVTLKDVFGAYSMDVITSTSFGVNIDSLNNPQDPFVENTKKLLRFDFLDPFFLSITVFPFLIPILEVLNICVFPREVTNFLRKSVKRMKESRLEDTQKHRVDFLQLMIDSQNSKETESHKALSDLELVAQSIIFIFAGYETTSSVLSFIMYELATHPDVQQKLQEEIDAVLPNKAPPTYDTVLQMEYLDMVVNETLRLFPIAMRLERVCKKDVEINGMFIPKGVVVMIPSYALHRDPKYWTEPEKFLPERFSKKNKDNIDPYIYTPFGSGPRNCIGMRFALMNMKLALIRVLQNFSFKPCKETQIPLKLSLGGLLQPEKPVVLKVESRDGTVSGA
As to the kind of experiment: Direct inhibition (DI) of CYP3A4 in human liver microsomes. The conditions noted are these: human liver microsomes 0.2 mg/mL, 10 μM compound. Format: in vitro ADME. On the procedure:
(§1) Study on Direct Inhibition (DI) of CYP3A4, CYP2D6, CYP2C9, CYP2C19, CYP1A2
(§2) A system of 100 μL human liver microsomes (final concentration: 0.2 mg/mL) was used for direct inhibition under warm incubation. The system contained NADPH (final concentration: 1 mM), 10 μM compound, a positive inhibitor cocktail (Ketoconazole 10 μM, Quinidine: 10 μM, Sulfaphenazole: 100 μM, Naphthoflavone: 10 μM, Tranylcypromene 1000 μM), a negative control 10 μM DMSO and mixed probe substrates (Midazolam 10 μM, Testosterone 100 μM, Dextromethophan 10 μM, Diclofenac 20 μM, Phenetin 100 μM, Mephenytoin 100 μM). The reaction was terminated after incubation for 20 minutes. The relative activity of the enzymes was calculated by measuring the relative production of metabolites.

The next series deals with T2, ErbB2 kinase (Homo sapiens, UniProt P04626).
T2 construct: The final concentration of ErbB2 kinase was 0.06 ng/μL
T2 sequence (P04626 23-1255): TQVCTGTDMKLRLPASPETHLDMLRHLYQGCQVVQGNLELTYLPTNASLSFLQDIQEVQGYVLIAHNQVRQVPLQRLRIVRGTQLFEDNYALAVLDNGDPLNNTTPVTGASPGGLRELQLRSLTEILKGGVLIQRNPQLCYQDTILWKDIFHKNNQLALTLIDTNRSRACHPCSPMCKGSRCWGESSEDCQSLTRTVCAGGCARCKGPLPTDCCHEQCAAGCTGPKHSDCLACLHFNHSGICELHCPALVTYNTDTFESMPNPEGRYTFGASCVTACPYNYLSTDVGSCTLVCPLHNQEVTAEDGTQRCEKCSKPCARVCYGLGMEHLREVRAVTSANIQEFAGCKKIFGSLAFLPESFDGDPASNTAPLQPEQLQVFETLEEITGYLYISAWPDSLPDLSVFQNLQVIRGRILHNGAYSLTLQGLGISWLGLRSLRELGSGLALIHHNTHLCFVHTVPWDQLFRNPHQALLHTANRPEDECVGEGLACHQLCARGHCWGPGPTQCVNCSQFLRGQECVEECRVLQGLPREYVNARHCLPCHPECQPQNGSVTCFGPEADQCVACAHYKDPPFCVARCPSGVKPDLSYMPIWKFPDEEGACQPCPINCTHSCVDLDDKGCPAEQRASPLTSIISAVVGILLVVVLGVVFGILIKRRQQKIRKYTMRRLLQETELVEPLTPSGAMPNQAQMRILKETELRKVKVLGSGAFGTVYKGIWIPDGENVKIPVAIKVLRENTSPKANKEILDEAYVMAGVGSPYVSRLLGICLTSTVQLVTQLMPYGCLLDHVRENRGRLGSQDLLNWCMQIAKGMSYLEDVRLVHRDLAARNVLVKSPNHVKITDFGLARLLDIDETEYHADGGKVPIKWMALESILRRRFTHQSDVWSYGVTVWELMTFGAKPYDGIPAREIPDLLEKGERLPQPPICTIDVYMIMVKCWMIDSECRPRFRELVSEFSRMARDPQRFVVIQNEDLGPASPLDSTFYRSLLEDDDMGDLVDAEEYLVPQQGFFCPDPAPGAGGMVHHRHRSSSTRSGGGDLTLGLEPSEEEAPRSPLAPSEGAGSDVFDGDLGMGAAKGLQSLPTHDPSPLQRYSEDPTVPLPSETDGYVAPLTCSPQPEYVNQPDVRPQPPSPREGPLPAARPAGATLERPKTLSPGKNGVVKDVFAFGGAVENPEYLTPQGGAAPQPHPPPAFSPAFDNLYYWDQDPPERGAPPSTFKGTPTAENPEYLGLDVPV
As to the kind of experiment: EGFR/ErbB2 enzymatic experiment (HTRF kinEASE-TK), ErbB2. The class given is biochemical. As to conditions: ErbB2 kinase 0.06 ng/μL, ATP 4 μM; read-out: Kinase IC50 (nM) in vitro ErbB2. On the procedure:
(§3) EGFR/ErbB2 Enzymatic Experiment
(§4) Firstly, 1× reaction buffer required for the kinase was prepared, then 5× Enzymatic buffer (HEPES 20 mM pH 7.0, NaN3 0.1%, BSA 0.05%, sodium orthovanadate 0.5 mM) was diluted in HTRF kinEASE-TK kit by 1 time with deionized water, and 50 nM Supplement Enzymatic buffer (SEB REAGENT), 1 mM MnCl2, 5 mM MfCl2, 1 mM DTT were added. Secondly, 5× compound was prepared, and 10 mM test compound storage solution was diluted in multiple steps with DMSO in a 96-well compound plate to prepare 100× compound as an initial concentration, which was then used as the first concentration to carry out a 3-fold gradient dilution with DMSO to obtain a total of 10 concentrations. Then 1 μL of gradient diluent was added to 19 μL of 1× reaction buffer to prepare 5× compound for later use. Then 2 μL of 5× compound was transferred from the 96-well plate into a 384-well plate. To the compound-free control wells was added 2 μL of the following liquid: 19 μL of 1× reaction buffer with addition of 1 μL of DMSO. To the blank control well was added 2 μL of 250 mM EDTA. […] In the fourth step of reaction termination, HTRF Detection buffer was used to prepare a mixture of 2×TK Antibody-EU (K) and Sa-XL665, and the amount of TK Antibody-EU (K) was 5 μL per well. After the enzyme reaction was carried out for 30 minutes, 10 μL of the above liquid was added to a 384-well plate, and the reaction was carried out at room temperature for 1 hour. […] RFU665 nM and RFU620 nM were measured, and RFU665 nM/RFU620 nM×10000 was used as final data for analysis.

The next series concerns the target T3, CYP2D6 (Homo sapiens, UniProt P10635).
T3 construct: A system of 100 μL human liver microsomes; from tissue; host or cells: human liver microsomes
Kind of series: Direct inhibition (DI) of CYP2D6 in human liver microsomes. As to conditions: probe Dextromethorphan, human liver microsomes 0.2 mg/mL, 10 μM compound, read-out: Direct inhibition (DI) 2D6 (Dextromethorphan). The class given is in vitro ADME. On the procedure:
as §1, §2

Series [1] has as its system N87 (human gastric cancer cell NCI-N87). As to the kind of experiment: In vitro proliferation inhibition assay of cell lines (CellTiter-Glo), N87. Format: cell-based. The conditions noted are these: N87 cells, 72 hours. As to the method:
(§5) In Vitro Proliferation Inhibition Assay of Cell Lines
(§6) 1. Cell culture and inoculation: on the first day of the experiment, normal cultured cells were taken, and in the exponential growth state, after digestion and dispersion, the cell density was then adjusted to 8.8×10^4 cells/mL for BT-474, and 6.6×10^4 cells/mL for N87, and 90 μL of which were inoculated to each well of a 96-well cell culture plate; after the inoculation was completed, the microplate was cultured under the conditions of 37° C. and 5% CO2 overnight. 2. Dosing to the cells: on the second day of the experiment, the microplate was taken out from the incubator, and 10 μL of 10× compound was added to each well of the microplate, setting 2 duplicate wells for each drug concentration and 9 dosing concentrations for each compound. According to different cell lines, the initial concentration of each compound was different. Upon completion of addition, the microplate was placed under the conditions of 37° C. and 5% CO2 for 72 hours. 3. Data acquisition: the microplate was taken out from the incubator and was allowed to equilibrate at room temperature for 30 minutes. 100 μL of CellTiter-Glo® Luminescent Cell Viability Assay reaction solution which had been equilibrated at room temperature was added to each well, and the reaction solution was shaken at 1300 rpm for 2 minutes at room temperature. After that, the microplate was placed in HERAEUS Multifuge X1R centrifuge, centrifuged at 2000 rpm for 1 minute, and allowed to equilibrate at room temperature for 10 minutes. The fluorescence signal value was measured on EnVision™.
A general note: Cellular ATP, detected with luciferase, serves as a proxy for viable cell number.

The target of the next series is EGFR kinase (Homo sapiens, UniProt P00533). Kind of series: EGFR/ErbB2 enzymatic experiment (HTRF kinEASE-TK), EGFR. Format: biochemical. The conditions noted are these: EGFR kinase 0.06 units/μL, ATP 1.65 μM; read-out: Kinase IC50 (nM) in vitro EGFR. On the procedure: as §3, §4
Sequence of EGFR kinase (P00533 25-1210): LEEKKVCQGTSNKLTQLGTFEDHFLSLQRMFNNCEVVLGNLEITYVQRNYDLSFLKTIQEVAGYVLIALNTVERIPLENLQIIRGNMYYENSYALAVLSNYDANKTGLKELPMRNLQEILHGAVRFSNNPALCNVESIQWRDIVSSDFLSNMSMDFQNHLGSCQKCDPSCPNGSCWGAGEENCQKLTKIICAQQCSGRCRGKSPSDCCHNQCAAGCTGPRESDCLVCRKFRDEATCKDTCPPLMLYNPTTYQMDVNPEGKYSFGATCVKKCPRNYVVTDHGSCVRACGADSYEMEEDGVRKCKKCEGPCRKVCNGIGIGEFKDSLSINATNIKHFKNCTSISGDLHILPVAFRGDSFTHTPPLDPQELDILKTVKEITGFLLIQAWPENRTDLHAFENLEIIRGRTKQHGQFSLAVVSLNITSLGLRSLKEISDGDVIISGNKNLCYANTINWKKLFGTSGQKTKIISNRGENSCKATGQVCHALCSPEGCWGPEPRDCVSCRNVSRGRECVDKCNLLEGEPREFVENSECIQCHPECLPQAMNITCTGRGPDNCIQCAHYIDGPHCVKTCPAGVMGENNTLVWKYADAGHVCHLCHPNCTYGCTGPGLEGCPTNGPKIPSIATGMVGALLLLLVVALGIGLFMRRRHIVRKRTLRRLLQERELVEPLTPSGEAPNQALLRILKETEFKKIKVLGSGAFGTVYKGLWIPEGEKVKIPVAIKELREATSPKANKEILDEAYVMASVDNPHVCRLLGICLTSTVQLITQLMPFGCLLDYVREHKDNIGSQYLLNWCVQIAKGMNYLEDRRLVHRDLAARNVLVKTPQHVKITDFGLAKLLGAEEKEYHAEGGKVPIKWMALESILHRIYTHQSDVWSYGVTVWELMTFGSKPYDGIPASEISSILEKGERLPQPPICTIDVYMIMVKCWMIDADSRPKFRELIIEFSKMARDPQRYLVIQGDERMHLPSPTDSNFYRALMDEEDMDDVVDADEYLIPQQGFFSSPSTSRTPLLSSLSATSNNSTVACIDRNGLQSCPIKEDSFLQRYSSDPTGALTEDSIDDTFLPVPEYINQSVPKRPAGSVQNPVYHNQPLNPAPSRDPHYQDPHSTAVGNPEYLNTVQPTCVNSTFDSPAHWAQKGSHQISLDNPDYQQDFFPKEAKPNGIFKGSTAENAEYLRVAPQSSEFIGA
A general note: Time-resolved FRET reads energy transfer from a long-lived donor to a nearby acceptor.

The test system of series [2] is BT-474 (human breast cancer cell). As to the kind of experiment: In vitro proliferation inhibition assay of cell lines (CellTiter-Glo), BT-474. Format: cell-based. As to conditions: BT-474 cells, 72 hours. As to the method:
as §5
as §6, with “Cell culture and inoculation: on the first day of the experiment, normal cultured cells were taken, and in the exponential growth state, after digestion and dispersion, the cell density was then adjusted to 8.8×10^4 cells/mL for BT-474, and 6.6×10^4 cells/mL for N87, and 90 μL of which were inoculated to each well of a 96-well cell culture plate; after the inoculation was completed, the microplate was cultured under the conditions of 37° C. and 5% CO2 overnight.” left out

The target of the next series is T4, CYP2C19 (Homo sapiens, UniProt P33261).
T4 construct: A system of 100 μL human liver microsomes; from tissue; host or cells: human liver microsomes
T4 sequence (P33261 whole entry): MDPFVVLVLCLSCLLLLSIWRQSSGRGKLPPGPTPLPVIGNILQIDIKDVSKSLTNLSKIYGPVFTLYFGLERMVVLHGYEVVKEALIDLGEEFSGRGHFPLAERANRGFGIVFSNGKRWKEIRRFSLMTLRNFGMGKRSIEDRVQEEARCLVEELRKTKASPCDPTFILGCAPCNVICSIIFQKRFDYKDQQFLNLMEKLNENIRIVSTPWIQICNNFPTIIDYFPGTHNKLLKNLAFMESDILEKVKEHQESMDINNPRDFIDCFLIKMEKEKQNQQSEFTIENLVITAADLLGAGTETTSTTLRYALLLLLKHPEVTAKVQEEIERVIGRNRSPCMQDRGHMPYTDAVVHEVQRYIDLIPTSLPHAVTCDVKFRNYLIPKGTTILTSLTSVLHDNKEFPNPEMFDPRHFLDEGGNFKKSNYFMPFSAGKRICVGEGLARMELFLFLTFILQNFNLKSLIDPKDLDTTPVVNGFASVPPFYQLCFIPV
Kind of series: Direct inhibition (DI) of CYP2C19 in human liver microsomes. The class given is in vitro ADME. As to conditions: probe Mephenytoin, human liver microsomes 0.2 mg/mL, 10 μM compound, read-out: Direct inhibition (DI) 2C19 (Mephenytoin). On the procedure: as §1, §2

The target in a further series is T5, CYP2C9 (Homo sapiens, UniProt P11712).
T5 construct: A system of 100 μL human liver microsomes; from tissue; host or cells: human liver microsomes
T5 sequence (P11712 whole entry): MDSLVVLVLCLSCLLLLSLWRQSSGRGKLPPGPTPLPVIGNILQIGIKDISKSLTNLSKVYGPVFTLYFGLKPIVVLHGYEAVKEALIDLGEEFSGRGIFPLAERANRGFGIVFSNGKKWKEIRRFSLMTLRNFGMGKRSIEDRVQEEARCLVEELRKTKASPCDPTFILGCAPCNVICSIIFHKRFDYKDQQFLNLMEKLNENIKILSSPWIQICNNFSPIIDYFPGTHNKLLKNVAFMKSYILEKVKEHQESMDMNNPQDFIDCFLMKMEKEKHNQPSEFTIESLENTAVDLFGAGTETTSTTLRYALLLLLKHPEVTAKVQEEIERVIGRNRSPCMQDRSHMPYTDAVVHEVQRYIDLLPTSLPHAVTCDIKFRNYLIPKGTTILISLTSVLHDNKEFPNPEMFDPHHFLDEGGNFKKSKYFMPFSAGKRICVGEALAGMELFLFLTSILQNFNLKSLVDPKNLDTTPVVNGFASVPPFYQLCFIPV
Kind of series: Direct inhibition (DI) of CYP2C9 in human liver microsomes. The class given is in vitro ADME. The conditions noted are these: probe Diclofenac, human liver microsomes 0.2 mg/mL, 10 μM compound, read-out: Direct inhibition (DI) 2C9 (Diclofenac). As to the method:
as §1, §2

A further series has as its target T6, CYP1A2 (Homo sapiens, UniProt P05177).
T6 construct: A system of 100 μL human liver microsomes; from tissue; host or cells: human liver microsomes
T6 sequence (P05177 1-516): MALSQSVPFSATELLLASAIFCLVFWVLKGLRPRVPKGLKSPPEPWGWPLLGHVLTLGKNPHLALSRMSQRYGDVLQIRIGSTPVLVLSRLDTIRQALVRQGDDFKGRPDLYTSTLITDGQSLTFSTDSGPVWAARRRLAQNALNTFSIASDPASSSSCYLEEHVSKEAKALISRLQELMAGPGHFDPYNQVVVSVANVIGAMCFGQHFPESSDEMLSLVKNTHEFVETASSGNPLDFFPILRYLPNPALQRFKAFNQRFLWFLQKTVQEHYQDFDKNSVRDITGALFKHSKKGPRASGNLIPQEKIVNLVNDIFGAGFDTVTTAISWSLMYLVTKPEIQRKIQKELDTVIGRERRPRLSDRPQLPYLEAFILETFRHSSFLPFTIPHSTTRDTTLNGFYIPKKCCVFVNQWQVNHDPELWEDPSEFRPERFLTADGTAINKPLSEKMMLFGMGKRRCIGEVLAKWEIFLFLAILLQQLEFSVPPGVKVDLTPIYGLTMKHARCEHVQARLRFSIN
Kind of series: Direct inhibition (DI) of CYP1A2 in human liver microsomes. The class given is in vitro ADME. The conditions noted are these: probe Phenacetin, human liver microsomes 0.2 mg/mL, 10 μM compound, read-out: Direct inhibition (DI) 1A2 (Phenacetin). As to the method: as §1, §2

[3] abbreviates: probe Midazolam, read-out: Direct inhibition (DI) 3A4 (Midazolam).
Where [4] appears, read: probe Testosterone, read-out: Direct inhibition (DI) 3A4 (testosterone).

T3 sequence (P10635 whole entry): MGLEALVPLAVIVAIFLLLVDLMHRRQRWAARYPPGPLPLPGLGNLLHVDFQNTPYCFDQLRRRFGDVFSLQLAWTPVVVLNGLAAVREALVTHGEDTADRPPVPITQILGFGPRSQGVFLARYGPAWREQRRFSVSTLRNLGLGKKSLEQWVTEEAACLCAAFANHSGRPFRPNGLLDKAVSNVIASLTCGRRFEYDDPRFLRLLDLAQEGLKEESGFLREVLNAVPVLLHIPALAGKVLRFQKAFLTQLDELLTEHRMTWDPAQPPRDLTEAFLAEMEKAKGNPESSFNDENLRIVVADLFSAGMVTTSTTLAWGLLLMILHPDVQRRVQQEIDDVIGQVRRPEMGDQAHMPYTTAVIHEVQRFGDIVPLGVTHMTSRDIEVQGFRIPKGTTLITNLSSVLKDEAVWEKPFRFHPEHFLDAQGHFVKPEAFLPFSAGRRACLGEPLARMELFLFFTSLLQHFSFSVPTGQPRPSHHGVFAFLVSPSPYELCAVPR

In the case of `Cc1cc(Nc2ncnc3ccc(NC(=O)/C=C/[C@H]4CCCN4C)cc23)ccc1Oc1ccc2nccn2c1` [Final product of Embodiment 24], the inhibition at 20 min, 10 µM on CYP3A4 (setting [3]) was determined as 36%; at CYP3A4 (setting [4]), 48%; at CYP2D6, 90%; on CYP2C19 it was 36%; on CYP2C9, 48%; at CYP1A2 it was 18%. Besides, the IC50 at ErbB2 kinase stood at 6.46 nM; in series [1], 2.93 nM; on EGFR kinase, 4.08 nM; in series [2], 4.6 nM.
As for `Cc1cc(Nc2ncnc3ccc(NC(=O)/C=C/[C@H]4CCCN4C)cc23)ccc1Oc1ccc2nccn2n1` [Final product of Embodiment 10], the inhibition at 20 min, 10 µM on CYP3A4 (setting [3]) is 12%; at CYP3A4 (setting [4]), 29%; on CYP2D6, 46%; on CYP2C19, 9%; at CYP2C9, below 0%; on CYP1A2, 14%. Further, the concentration for half-maximal inhibition (IC50) at ErbB2 kinase was determined as 1.34 nM; in [1], 3.52 nM; on EGFR kinase it was 4.62 nM; in series [2], 4.56 nM.
`CCOc1cc2ncnc(Nc3ccc(Oc4cc5nncn5cn4)c(C)c3)c2cc1NC(=O)/C=C/[C@H]1CCCN1` [Final product of Embodiment 17, (R,E)-N-(4-((4-([1,2,4]triazolo[4,3-c]pyrimidin-7-yloxy)-3-methylphenyl)amino)-7-ethoxyquinazolin-6-yl)-3-(pyrrolidin-2-yl)acrylamide]: the inhibition at 20 min, 10 µM on CYP3A4 (setting [3]) stood at 17%; at CYP3A4 (setting [4]), 34%; on CYP2D6, 4%; on CYP2C19, 9%; on CYP2C9, 8%; on CYP1A2 it was 3%. The half-maximal inhibitory concentration (IC50) was found to be 0.488 nM at ErbB2 kinase, 4.97 nM in [1], 0.251 nM at EGFR kinase and 5.31 nM in [2].
With `CCOc1cc2ncc(C#N)c(Nc3ccc(Oc4cc5nncn5cn4)c(C)c3)c2cc1NC(=O)/C=C/[C@H]1CCCN1C` [Final product of Embodiment 33], the inhibition at 20 min, 10 µM is 10% at CYP3A4 (setting [3]); 17% at CYP3A4 (setting [4]); 3% at CYP2D6; 49% at CYP2C19; 17% on CYP2C9; below 0% at CYP1A2. Further, the 50% inhibitory concentration (IC50) at ErbB2 kinase turned out to be 3.56 nM; in series [1] it was 3.2 nM; at EGFR kinase, 2.14 nM; in series [2], 4.2 nM.
Turning to `Cc1cc(Nc2ncnc3ccc(NC(=O)/C(F)=C/[C@H]4CCCN4C)cc23)ccc1Oc1cc2nncn2cn1` [Final product of Embodiment 43], the inhibition at 20 min, 10 µM was below 0% at CYP3A4 (setting [3]); below 0% at CYP3A4 (setting [4]); 69% at CYP2D6; below 0% on CYP2C19; below 0% at CYP2C9; below 0% at CYP1A2. Besides, the concentration for half-maximal inhibition (IC50) at ErbB2 kinase was 2.6 nM; in series [1], 1.3 nM; on EGFR kinase it was 4.7 nM; in series [2], 1.8 nM.
Take `CCOc1cc2ncnc(Nc3ccc(Oc4cc5nncn5cn4)c(C)c3)c2cc1NC(=O)/C=C/[C@H]1CCCN1C` [Final product of Embodiment 18, (R,E)-N-(4-((4-([1,2,4]triazolo[4,3-c]pyrimidin-7-yloxy)-3-methylphenyl)amino)-7-ethoxyquinazolin-6-yl)-3-(1-methylpyrrolidin-2-yl)acrylamide]: the inhibition at 20 min, 10 µM at CYP3A4 (setting [3]) is 12%; at CYP3A4 (setting [4]), 23%; at CYP2D6, 4%; at CYP2C19 it was 8%; at CYP2C9, 4%; at CYP1A2, 5%. The half-maximal inhibitory concentration (IC50) on ErbB2 kinase was 0.513 nM; in series [1] it was 1.58 nM; on EGFR kinase it was 0.358 nM; in series [2], 2.1 nM.
As for `CCOc1cc2ncnc(Nc3ccc(Oc4ccn5ncnc5c4)c(C)c3)c2cc1NC(=O)/C(F)=C/[C@@H]1CCCN1C` [Final product of Embodiment 47], the inhibition at 20 min, 10 µM came to 33% on CYP3A4 (setting [3]); 42% at CYP3A4 (setting [4]); 54% on CYP2D6; 47% on CYP2C19; 34% on CYP2C9; 35% on CYP1A2. Besides, the IC50 at ErbB2 kinase came to 4.2 nM; in series [1], 3.8 nM; at EGFR kinase it was 38.5 nM; in series [2] it was 7.1 nM.
